Experimental data from US6509035B1, “Oral preparation of coenzyme a useful for lowering blood lipid and a method producing for same” (Shanghai Materia Medica Bioengineering Institute, priority 1999, dated 2003).

Legend:
[1] = tested on: peripheral platelet; assay: Effect of CoA on peripheral platelet of experimental dogs; assay type: in vivo, dog
Description: Object: 10 experimental dogs were used and devided into 2 groups of 5 to which oral or injection preparations of CoA was adminisered, respectively. Their peripheral platelet samples were taken and tested at intervals to observe the differences between before and after administration.
Dosage of CoA: Oral administration group, 100 units per time, twice per day. Injection administration group, 35 units per time, twice per day.
Result: Statistical analysis were carried out on the changes of the number of platelets before and after the administration of CoA to dogs by individual comparison test. It is noted that exogenous CoA can improve the level of platelet in experimental dogs in a short time either administered by oral or injection route.

[2] = tested on: serum triglyceride; assay: Effect of CoA on serum triglyceride in patients with hyperlipemia; assay type: in vivo, human; settings: oral 35 units three times daily
Description: (§1) Object: Individuals with plasma lipid more than 90% of upper limit of normal person were chosen, i.e. serum cholesterol >230 mg %, or triglyceride >160 mg %, 39 patients in total, 14 male, aged from 28-65; 25 female, aged from 32 to 70.
(§2) Oral dosage of CoA: one tablet per time, 35 units per tablet, administered on empty stomach three times daily. Three months was used as a course of treatment. During the course of the administration, the patients had diet same as the normal and stopped the administration of any other lipid-lowering medicament.
(§3) Measurement of plasma lipid: venous blood samples were taked from 12-14 hrs-fasting patients before administration and one month and 3 months after administration. Concentration of serum cholesterol and triglyceride were measured after isolation of serum. In the meantime, each patients' medical history was inquired, blood pressure was measured and liver function was determined.
(1) Effect on triglyceride: Statistical analysis were carried out on the difference of the concentration of serum triglyceride of hyperlipemia patients between before and after the administration of CoA by individual comparison test.

[3] = tested on: serum cholesterol; assay: Effect of CoA on serum cholesterol in patients with hyperlipemia; assay type: in vivo, human; settings: oral 35 units three times daily
Description: as §1, §2, §3
(2) Effect on cholesterol: Statistical analysis was carried out on the difference of the concentration of serum cholesterol of patients with hyperlipemia between before and after the administration of CoA by individual comparison test.

`CC(C)(COP(=O)(O)OP(=O)(O)OC[C@H]1O[C@@H](n2cnc3c(N)ncnc32)[C@H](O)[C@@H]1OP(=O)(O)O)[C@@H](O)C(=O)NCCC(=O)NCCS` [CoA, coenzyme A] was tested, and the “Average increment of platelets” value ([1]; injection administration group, day 8 (P<0.01)) was 170,800 /mm^3, the “Average increment of platelet” value ([1]; injection administration, 35 units twice per day, sampling time 1) was 0.28 10,000/mm^3 and the “Average increment of platelet” value ([1]; injection administration, 35 units twice per day, sampling time 3) was 7.44 10,000/mm^3. The “Average increment of platelet” value ([1]; injection administration, 35 units twice per day, sampling time 6) was 5.48 10,000/mm^3, the “Average increment of platelet” value ([1]; injection administration, 35 units twice per day, sampling time 8) was 17.08 10,000/mm^3 and the “Average increment of platelet” value ([1]; injection administration, 35 units twice per day, sampling time 10) was 11.36 10,000/mm^3. The “Average increment of platelet” value ([1]; injection administration, 35 units twice per day, sampling time 13) was 3.68 10,000/mm^3, the “Average increment of platelets” value ([1]; oral administration group, day 6 (P<0.05)) was 133,000 /mm^3 and the “Average increment of platelet” value ([1]; oral administration, 100 units twice per day, sampling time 1) was 8.64 10,000/mm^3. The “Average increment of platelet” value ([1]; oral administration, 100 units twice per day, sampling time 3) was 8.06 10,000/mm^3, the “Average increment of platelet” value ([1]; oral administration, 100 units twice per day, sampling time 6) was 13.3 10,000/mm^3 and the “Average increment of platelet” value ([1]; oral administration, 100 units twice per day, sampling time 8) was 4.25 10,000/mm^3. For the same compound, the “Average increment of platelet” value ([1]; oral administration, 100 units twice per day, sampling time 10) was 1.96 10,000/mm^3, the “Average increment of platelet” value ([1]; oral administration, 100 units twice per day, sampling time 13) was −2.52 10,000/mm^3 and the “Average difference of triglyceride concentration between before and after administration (decrement)” value ([2]; one month) was 64.2 mg %. The “Average difference of triglyceride concentration between before and after administration (decrement)” value ([2]; three months) was 75.5 mg %, the “Average difference of serum cholesterol concentration between before and after administration (decrement)” value ([3]; one month) was 25.7 mg % and the “Average difference of serum cholesterol concentration between before and after administration (decrement)” value ([3]; three months) was 22.1 mg %.
